Measured values taken from patent US20240217960A1, “TRIAZINE DERIVATIVE AS COVALENT INHIBITORS OF PI3K” (UNIVERSITÄT BASEL, priority 2021, published 2024).
pIC50, pKi: −log10 of the molar value. Read-outs that look alike come from different tables or passages of the source.

What was measured:
[1] = Intrinsic reactivity of the inhibitors (kchem) with βME measured with HPLC; assay type: physicochemical; details: 1 mM inhibitor + 600 mM βME, n = 3
[2] = target: p110α (PI3Kα) (Homo sapiens, UniProt P42336); assay: Determination of kinetic constants (kinact, Ki) for p110α by LanthaScreen Technology; assay type: binding; details: for kinact: maximum potential rate of covalent bond formation, read-out: kinact PI3Kα; for kinact/KI: read-out: kinact/Ki PI3Kα
Method: Maximum potential rate of covalent bond formation (kinact) and dissociation constant of the first reversible binding (Ki) of compounds for p110α were determined by LanthaScreen Technology (Life Technologies). The calculation of kinetic parameters was carried out through global fitting for numerical integration by using KinTek Global Kinetic Explorer modelling software^26-31.

[3] = system: pSer473 of PKB/Akt in SKOV3 cells; assay: In Cell Western cellular PI3K signaling and IC50 determination; assay type: cell-based; details: Homo sapiens
Method: Protein phosphorylation was detected as follows: pSer473 of PKB/Akt with rabbit polyclonal antibody from Cell Signaling Technology (CST) (#4058) by In-Cell Western assays, where 1.2×10^4 SKOV3 cells/well in 96-well plates were plated (Cell Carrier, PerkinElmer) for 24 hours (37° C., 5% CO2), as described in Ref. ^25.

[4] = dissociation constant of the first reversible binding, global fitting with KinTek, read-out: Ki PI3Kα
[5] = SK-OV-3, SKOV3 cells, 2 or 3 independent measurements, read-out: IC50 pPKB (S473) SKOV3
[6] = SK-OV-3, read-out: IC50 pPKB (S473) SKOV3

p110α (PI3Kα), sequence (P42336 whole entry): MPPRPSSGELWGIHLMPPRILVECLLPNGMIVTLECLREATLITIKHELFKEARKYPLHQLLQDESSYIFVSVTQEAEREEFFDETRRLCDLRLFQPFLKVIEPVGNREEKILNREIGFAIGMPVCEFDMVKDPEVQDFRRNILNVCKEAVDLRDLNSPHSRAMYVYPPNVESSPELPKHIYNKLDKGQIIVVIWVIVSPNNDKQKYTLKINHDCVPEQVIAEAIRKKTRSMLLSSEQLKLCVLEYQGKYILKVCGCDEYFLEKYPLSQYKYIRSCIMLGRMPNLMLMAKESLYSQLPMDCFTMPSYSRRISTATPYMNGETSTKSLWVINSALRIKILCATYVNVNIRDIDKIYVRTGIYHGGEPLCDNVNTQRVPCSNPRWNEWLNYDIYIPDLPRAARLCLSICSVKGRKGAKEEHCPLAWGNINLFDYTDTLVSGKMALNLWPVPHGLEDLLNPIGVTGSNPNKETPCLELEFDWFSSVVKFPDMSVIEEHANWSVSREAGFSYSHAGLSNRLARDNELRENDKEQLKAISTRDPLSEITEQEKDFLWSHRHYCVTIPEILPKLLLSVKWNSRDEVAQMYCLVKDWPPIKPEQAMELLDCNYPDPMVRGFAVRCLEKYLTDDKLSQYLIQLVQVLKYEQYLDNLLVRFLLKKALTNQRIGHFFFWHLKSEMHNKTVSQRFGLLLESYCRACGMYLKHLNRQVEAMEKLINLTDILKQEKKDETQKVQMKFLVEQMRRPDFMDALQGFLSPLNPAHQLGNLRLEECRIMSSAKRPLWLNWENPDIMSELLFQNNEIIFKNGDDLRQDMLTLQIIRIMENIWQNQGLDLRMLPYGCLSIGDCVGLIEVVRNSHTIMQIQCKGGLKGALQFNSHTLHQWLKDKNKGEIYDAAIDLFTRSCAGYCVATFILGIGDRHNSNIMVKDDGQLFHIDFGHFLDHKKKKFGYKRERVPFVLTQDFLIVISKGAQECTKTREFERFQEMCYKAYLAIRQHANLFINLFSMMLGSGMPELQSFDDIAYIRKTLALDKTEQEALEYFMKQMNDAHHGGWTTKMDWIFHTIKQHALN
p110α (PI3Kα), sequence (P27986 whole entry partner): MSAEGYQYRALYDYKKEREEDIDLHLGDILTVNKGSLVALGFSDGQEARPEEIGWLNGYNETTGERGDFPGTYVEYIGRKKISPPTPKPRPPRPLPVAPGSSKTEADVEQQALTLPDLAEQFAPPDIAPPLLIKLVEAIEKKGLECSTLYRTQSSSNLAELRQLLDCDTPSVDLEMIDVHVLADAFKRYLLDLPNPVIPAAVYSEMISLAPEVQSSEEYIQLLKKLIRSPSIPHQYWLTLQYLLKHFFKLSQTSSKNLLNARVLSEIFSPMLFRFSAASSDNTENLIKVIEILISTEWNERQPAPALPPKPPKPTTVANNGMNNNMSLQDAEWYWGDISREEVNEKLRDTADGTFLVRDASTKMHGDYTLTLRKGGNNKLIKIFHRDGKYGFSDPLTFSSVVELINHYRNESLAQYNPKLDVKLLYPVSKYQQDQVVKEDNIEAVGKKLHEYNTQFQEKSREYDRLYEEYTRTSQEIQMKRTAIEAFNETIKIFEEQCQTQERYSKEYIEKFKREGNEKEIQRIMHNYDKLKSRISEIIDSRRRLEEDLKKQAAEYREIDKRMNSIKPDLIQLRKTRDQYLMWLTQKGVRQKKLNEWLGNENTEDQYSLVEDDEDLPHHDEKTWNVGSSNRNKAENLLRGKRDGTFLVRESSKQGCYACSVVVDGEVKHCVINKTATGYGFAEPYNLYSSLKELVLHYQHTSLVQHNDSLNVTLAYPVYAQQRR

| SMILES | kchem (intrinsic reactivity of the inhibitors) [1] | pKi [2, 4] | kinact ([2]; global fitting with KinTek) | kinact/KI [2] | pIC50 [3, 5] | pKi ([2]; Ki value determined after 60 min of drug incubation with PI3Kα, 2 independent measurements, read-out: Ki PI3Kα (footnote d)) | pIC50 [3, 6] |
| --- | --- | --- | --- | --- | --- | --- | --- |
| C/C=C/C(=O)CCCCC(=O)N1CCN(c2nc(-c3cnc(N)nc3C(F)F)nc(N3CCOCC3)n2)CC1 [Compound 2, (E)-1-(4-(4-(2-amino-4-(difluoromethyl)pyrimidin-5-yl)-6-morpholino-1,3,5-triazin-2-yl)piperazin-1-yl)non-7-ene-1,6-dione] | 0.0857 M⁻¹ s⁻¹ | 8.24 | 0.00392 s⁻¹ | 693000 M⁻¹ s⁻¹ | 7.33 | – | – |
| CC(C)=CC(=O)CCCCC(=O)N1CCN(c2nc(-c3cnc(N)nc3C(F)F)nc(N3CCOCC3)n2)CC1 [Compound 5, 1-(4-(4-(2-amino-4-(difluoromethyl)pyrimidin-5-yl)-6-morpholino-1,3,5-triazin-2-yl)piperazin-1-yl)-8-methylnon-7-ene-1,6-dione] | 0.00022 M⁻¹ s⁻¹ | 8.00 | 0.000187 s⁻¹ | 18700 M⁻¹ s⁻¹ | 7.28 | – | – |
| CC(C)=CC(=O)N(C)CCCC(=O)N1CCN(c2nc(-c3cnc(N)nc3C(F)F)nc(N3CCOCC3)n2)CC1 [Compound 11, N-(4-(4-(4-(2-amino-4-(difluoromethyl)pyrimidin-5-yl)-6-morpholino-1,3,5-triazin-2-yl)piperazin-1-yl)-4-oxobutyl)-N,3-dimethylbut-2-enamide] | <<1.00 × 10^−7 M^−1 · s^−1 | – | – | – | – | 8.16 | – |
| C=CC(=O)NCCCC(=O)N1CCN(c2nc(-c3cnc(N)nc3C(F)F)nc(N3CCOCC3)n2)CC1 [Compound 13, N-(4-(4-(4-(2-amino-4-(difluoromethyl)pyrimidin-5-yl)-6-morpholino-1,3,5-triazin-2-yl)piperazin-1-yl)-4-oxobutyl)acrylamide] | 0.000138 M⁻¹ s⁻¹ | 8.27 | 7.6e-05 s⁻¹ | 14200 M⁻¹ s⁻¹ | – | – | – |
| C/C=C/C(=O)CCC(=O)N1CCN(c2nc(-c3cnc(N)nc3C(F)F)nc(N3CCOCC3)n2)CC1 [Compound 19, (E)-1-(4-(4-(2-amino-4-(difluoromethyl)pyrimidin-5-yl)-6-morpholino-1,3,5-triazin-2-yl)piperazin-1-yl)hept-5-ene-1,4-dione] | 0.0484 M⁻¹ s⁻¹ | 8.82 | 0.0002 s⁻¹ | 130000 M⁻¹ s⁻¹ | 7.70 | – | – |
| C/C=C/C(=O)CCCC(=O)N1CCN(c2nc(-c3cnc(N)nc3C(F)F)nc(N3CCOCC3)n2)CC1 [Compound 20, (E)-1-(4-(4-(2-amino-4-(difluoromethyl)pyrimidin-5-yl)-6-morpholino-1,3,5-triazin-2-yl)piperazin-1-yl)oct-6-ene-1,5-dione] | 0.0806 M⁻¹ s⁻¹ | 8.17 | 0.00121 s⁻¹ | 183000 M⁻¹ s⁻¹ | 7.41 | – | – |
| C/C=C/C(=O)CCCCCC(=O)N1CCN(c2nc(-c3cnc(N)nc3C(F)F)nc(N3CCOCC3)n2)CC1 [Compound 21, (E)-1-(4-(4-(2-amino-4-(difluoromethyl)pyrimidin-5-yl)-6-morpholino-1,3,5-triazin-2-yl)piperazin-1-yl)dec-8-ene-1,7-dione] | 0.0632 M⁻¹ s⁻¹ | 7.93 | 0.016 s⁻¹ | 1.27e+06 M⁻¹ s⁻¹ | 7.35 | – | – |
| CC(C)=CC(=O)CCC(=O)N1CCN(c2nc(-c3cnc(N)nc3C(F)F)nc(N3CCOCC3)n2)CC1 [Compound 22, 1-(4-(4-(2-amino-4-(difluoromethyl)pyrimidin-5-yl)-6-morpholino-1,3,5-triazin-2-yl)piperazin-1-yl)-6-methylhept-5-ene-1,4-dione] | 0.000188 M⁻¹ s⁻¹ | – | 1.13e-05 s⁻¹ | – | – | – | – |
| CC(C)=CC(=O)CCCC(=O)N1CCN(c2nc(-c3cnc(N)nc3C(F)F)nc(N3CCOCC3)n2)CC1 [Compound 23, 1-(4-(4-(2-amino-4-(difluoromethyl)pyrimidin-5-yl)-6-morpholino-1,3,5-triazin-2-yl)piperazin-1-yl)-7-methyloct-6-ene-1,5-dione] | 0.000224 M⁻¹ s⁻¹ | 8.09 | 2.56e-05 s⁻¹ | 3210 M⁻¹ s⁻¹ | – | – | – |
| CC(C)=CC(=O)CCCCCC(=O)N1CCN(c2nc(-c3cnc(N)nc3C(F)F)nc(N3CCOCC3)n2)CC1 [Compound 24, 1-(4-(4-(2-amino-4-(difluoromethyl)pyrimidin-5-yl)-6-morpholino-1,3,5-triazin-2-yl)piperazin-1-yl)-9-methyldec-8-ene-1,7-dione] | 0.000173 M⁻¹ s⁻¹ | – | – | – | 7.05 | – | – |
| C=CC(=O)N1CCC(C(=O)N2CCN(c3nc(-c4cnc(N)nc4C(F)F)nc(N4CCOCC4)n3)CC2)CC1 [Compound 28, 1-(4-(4-(4-(2-amino-4-(difluoromethyl)pyrimidin-5-yl)-6-morpholino-1,3,5-triazin-2-yl)piperazine-1-carbonyl)piperidin-1-yl)prop-2-en-1-one] | 0.00041 M⁻¹ s⁻¹ | 7.96 | 5.77e-05 s⁻¹ | 5390 M⁻¹ s⁻¹ | 7.29 | – | – |
| C=CC(=O)N1CCC(CC(=O)N2CCN(c3nc(-c4cnc(N)nc4C(F)F)nc(N4CCOCC4)n3)CC2)CC1 [Compound 35, 1-(4-(2-(4-(4-(2-amino-4-(difluoromethyl)pyrimidin-5-yl)-6-morpholino-1,3,5-triazin-2-yl)piperazin-1-yl)-2-oxoethyl)piperidin-1-yl)prop-2-en-1-one] | 0.000249 M⁻¹ s⁻¹ | 7.97 | 9.84e-05 s⁻¹ | 9290 M⁻¹ s⁻¹ | 7.33 | – | – |
| C=CC(=O)N1CCC(CCC(=O)N2CCN(c3nc(-c4cnc(N)nc4C(F)F)nc(N4CCOCC4)n3)CC2)CC1 [Compound 40, 1-(4-(3-(4-(4-(2-amino-4-(difluoromethyl)pyrimidin-5-yl)-6-morpholino-1,3,5-triazin-2-yl)piperazin-1-yl)-3-oxopropyl)piperidin-1-yl)prop-2-en-1-one] | 0.000307 M⁻¹ s⁻¹ | 8.07 | 0.000292 s⁻¹ | 34300 M⁻¹ s⁻¹ | 7.32 | – | – |
| C=CC(=O)N1CCC(C(=O)NCC(=O)N2CCN(c3nc(-c4cnc(N)nc4C(F)F)nc(N4CCOCC4)n3)CC2)CC1 [Compound 43, 1-acryloyl-N-(2-(4-(4-(2-amino-4-(difluoromethyl)pyrimidin-5-yl)-6-morpholino-1,3,5-triazin-2-yl)piperazin-1-yl)-2-oxoethyl)piperidine-4-carboxamide] | 0.00037 M⁻¹ s⁻¹ | – | – | – | – | – | 7.09 |
| C=CC(=O)N1CCC(C(=O)NCCC(=O)N2CCN(c3nc(-c4cnc(N)nc4C(F)F)nc(N4CCOCC4)n3)CC2)CC1 [Compound 48, 1-acryloyl-N-(3-(4-(4-(2-amino-4-(difluoromethyl)pyrimidin-5-yl)-6-morpholino-1,3,5-triazin-2-yl)piperazin-1-yl)-3-oxopropyl)piperidine-4-carboxamide] | 0.000452 M⁻¹ s⁻¹ | 7.85 | 0.000253 s⁻¹ | 18000 M⁻¹ s⁻¹ | 6.18 | – | – |
| C=CC(=O)N1CCC(C(=O)NCCCC(=O)N2CCN(c3nc(-c4cnc(N)nc4C(F)F)nc(N4CCOCC4)n3)CC2)CC1 [Compound 51, 1-acryloyl-N-(4-(4-(4-(2-amino-4-(difluoromethyl)pyrimidin-5-yl)-6-morpholino-1,3,5-triazin-2-yl)piperazin-1-yl)-4-oxobutyl)piperidine-4-carboxamide] | 0.000437 M⁻¹ s⁻¹ | 7.97 | 0.000195 s⁻¹ | 18800 M⁻¹ s⁻¹ | 6.16 | – | – |
| C=CC(=O)N1CCC(C(=O)N(C)CC(=O)N2CCN(c3nc(-c4cnc(N)nc4C(F)F)nc(N4CCOCC4)n3)CC2)CC1 [Compound 54, 1-acryloyl-N-(2-(4-(4-(2-amino-4-(difluoromethyl)pyrimidin-5-yl)-6-morpholino-1,3,5-triazin-2-yl)piperazin-1-yl)-2-oxoethyl)-N-methylpiperidine-4-carboxamide] | 0.000354 M⁻¹ s⁻¹ | – | – | – | – | – | 7.07 |
| C=CC(=O)N1CCC(C(=O)N(C)CCC(=O)N2CCN(c3nc(-c4cnc(N)nc4C(F)F)nc(N4CCOCC4)n3)CC2)CC1 [Compound 57, 1-acryloyl-N-(3-(4-(4-(2-amino-4-(difluoromethyl)pyrimidin-5-yl)-6-morpholino-1,3,5-triazin-2-yl)piperazin-1-yl)-3-oxopropyl)-N-methylpiperidine-4-carboxamide] | 0.000388 M⁻¹ s⁻¹ | 7.84 | 0.000378 s⁻¹ | 26100 M⁻¹ s⁻¹ | 6.60 | – | – |
| CN(C)C/C=C/C(=O)N1CCC(C(=O)N(C)CCC(=O)N2CCN(c3nc(-c4cnc(N)nc4C(F)F)nc(N4CCOCC4)n3)CC2)CC1 [Compound 58, (E)-N-(3-(4-(4-(2-amino-4-(difluoromethyl)pyrimidin-5-yl)-6-morpholino-1,3,5-triazin-2-yl)piperazin-1-yl)-3-oxopropyl)-1-(4-(dimethylamino)but-2-enoyl)-N-methylpiperidine-4-carboxamide] | 0.000386 M⁻¹ s⁻¹ | 7.91 | 0.000406 s⁻¹ | 33600 M⁻¹ s⁻¹ | 6.59 | – | – |
